Consider one molecule from US10905680B2, “Methods of treatment for cholestatic and fibrotic diseases” (Genfit, priority 2016, dated 2021).

In general, IC50 refers to the midpoint of a concentration-inhibition curve.

The subject of series [1] is human primary hepatic stellate cells (hHSC). The series is described as follows: TGFβ1-induced expression of α-SMA protein in human HSC (ELISA). Type of series: cell-based. As to conditions: Homo sapiens, 1 h preincubation, TGFβ1 1 ng/ml, 48 hours, read-out: IC50 (level of α-SMA in TGFβ-induced HSCs). As to the method:
Serum-deprived HSC were preincubated for 1 hour with NTZ (A) or TZ (B) before the activation with the profibrogenic cytokine TGFβ1 (1 ng/ml). After 48 hours of incubation, the expression of α-SMA was measured by ELISA. The obtained values were transformed into percentage inhibition over TGFβ1 control. Data are presented as mean (triplicates)±standard deviation (SD). Statistical analyses were performed by one-way ANOVA followed by Bonferroni post-hoc tests, using Sigma Plot 11.0 software. [*: p<0.05; **: p<0.01; ***: p<0.001 (comparison versus TGFβ1 1 ng/mL group)]. The curve fitting and the calculation of half maximal inhibitory concentration (IC50) were performed with XLFit software 5.3.1.3. The human primary hepatic stellate cells (hHSC) (Innoprot) were cultured in STeCM medium (ScienCell cat #5301) that was supplemented with 2% fetal bovine serum (FBS, ScienCell cat #0010), 1% penicillin/streptomycin (ScienCell cat #0503) and stellate cell growth supplement (SteCGS; ScienCell cat #5352). Cell culture flasks were coated with Poly-L Lysine (Sigma cat # P4707) for a better adherence. The human primary hepatic stellate cells (hHSC) (Innoprot) were cultured under standard conditions, as described above. The cells were subsequently plated at a density of 7×10^4 cells/well into 24-well plates for gene expression studies, and at a density of 2×10^4 cells/well into 96-well plates for the measure of α-SMA by ELISA. The next day, cell culture medium was removed, and cells were washed with PBS (Invitrogen cat #14190). hHSC were deprived for 24 hours in serum-free and SteCGS-free medium. For the treatments with NTZ or TZ, the serum-deprived hHSC were preincubated for 1 hour with the compounds followed by the addition of the profibrogenic stimuli TGFβ1 (PeproTech cat #100-21, 1 ng/mL) in serum-free and SteCGS-free medium for an additional 24 or 48 hour period (the timepoint is indicated in the figure legends). […] The level of α-SMA was measured using a Sandwich ELISA. […]
(In an ELISA, binding on a coated surface is turned into a signal by an enzyme label.)

The subject of a further series is HSC. The series is described as follows: Toxicity assays in HSC. The class given is cell-based, human. As to conditions: data not shown.

As to `CC(=O)Oc1ccccc1C(=O)Nc1ncc([N+](=O)[O-])s1` [NTZ, [2-[(5-nitro-1,3-thiazol-2-yl)carbamoyl]phenyl]ethanoate, reference compound], the IC50 in series [1] fell in the range of 100 to 3000 nM. Also, the “toxicity or apoptosis of HSC” value in the series on HSC was “not due to toxicity or apoptosis”.
